Laboratory results as given in patent publication US4153684A, “Immunizing and anti-infectious adjuvant agents constituted by N-acetyl-muramyl-L-alanyl-D-glutamic acid derivatives” (priority 1976, dated 1979).
Where “and” joins values, the source holds several entries; their conditions need not be identical. Equal values may be shown once.

Legend:
anti-albumin antibody = assay: Adjuvant character in aqueous phase: anti-albumin antibody by passive hemagglutination (esters); type: in vivo, Swiss mice
Method: In the series of tests of which the results are indicated hereafter, the influence of the active principle according to the invention on the proportion of the anti-albumin antibody has been studied under the following conditions.
Groups of 8 Swiss mice aged two months receive by subcutaneous injection (SC) or orally (PO) 0.5 mg of antigen constituted by the albumin of bovine serum (BSA) with or without the substance tested in an isotonic saline solution. This large dose of antigen, since it is situated at the limit of the paralysing dose with respect to the immunising response, on account of this fact has a weak response or no response to the antigen alone in the case of the controls; it therefore constitutes a severe criterion for showing the activity of an adjuvant substance. Thirty days later, the mice receive, by the same method of administration, a further dose containing 0.1 mg of the same antigen.
The proportion of antibody is determined by passive hemagglutination by using the red blood corpuscles of sheep treated with formalin and recovered from the antigen studied according to the method described by A. A. Hirata and M. W. Brandiss (J. Immunol., 100, 641-648, 1968). The taking of the blood occurred 14, 28, 34 and 36 days after the first injection.
By way of comparison, mice receive, instead of the product according to the invention, either lipopolysaccharides (LPS) (extract of S.Enteritidis by the water-phenol method), or the adjuvant denoted by the name "WSA" and described by Adam et al. [Infect. Immun. (1973) 7, 855-861]. The control mice only receive the antigen.
The proportions of antibody express the maximum serum dilution which agglutinates a given quantity of red blood corpuscles of sheep.

[1] = system: antibody specific to the ovalbumin; assay: Adjuvant character in oily phase: serum antibody specific to ovalbumin (esters); type: in vivo, Hartley guinea-pigs; settings: 100μg in FIA emulsion; for Serum antibody Precipitation: intradermal, 21 days; for Serum antibody Agglutination: passive hemagglutination
[2] = system: retarded hypersensitivity to ovalbumin; assay: Retarded hypersensitivity cutaneous test to ovalbumin (esters); type: in vivo, Hartley guinea-pigs; settings: 100μg in FIA emulsion, challenge day 18, read 48 hours after
Method: The tests are effected on batches of 6 Hartley guinea-pigs, females, of 350 g. The administration is made by intradermal injection in the planter pad of each of the hind feet. […] The compound according to the invention is administered at the rate of 0.1 mg contained in the emulsion containing the FIA.
Eighteen days after this immunisation, one looks for possible reactions of retarded hypersensitivity in the antigen on injecting indradermally 0.01 mg or 5 μg of ovalbumin on the side of the animals, and 48 hours after, the reaction at the point of injection is observed. The diameter in mm of the reaction thus caused is measured.

Klebsiella pneumoniae = assay: Anti-infectious protection, intramuscular inoculation of 10^4 K.pneumoniae; type: in vivo, hybrid mice (C57B1/6×AKR)Fl; settings: for Number of animals surviving on day 3 / Number of animals surviving on day 5 / Number of animals surviving on day 8: mouse, in vivo
mice = assay: LD50 by intravenous injection on mice, Mur-NAc-L-Ser-D-iso-Gln; type: in vivo; settings: mice aged two months
Method: By progressively increasing the doses administered, that for which the mortality of the mice of a single batch is established at 50% (LD50) is determined.

anti-albumin antibodies [3] = assay: Adjuvant character in aqueous phase, 0.5 mg BSA (Ser series); type: in vivo, Swiss mice
Method: In the series of tests of which the results are indicated hereafter, the influence of the active principle according to the invention on the strength of the anti-albumin antibodies has been studied under the following conditions.
(§1) Groups of 8 Swiss mice aged two months receive, by subcutaneous injection, 0.5 mg of antigen constituted by the albumin of bovine serum (BSA) and 0.1 mg of the tested substance in an isotonic saline solution. This high dose of antigen, since it is situated at the limit of the paralysing dose with respect to the immunising response, therefore carries with it a weak response or no response to the antigen alone in the tests; it then constitutes a severe criterion for showing the activity of an adjuvant substance. Thirty days later, the mice receive a further dose containing 0.1 mg of the same antigen.
(§2) The strength of the antibody is determined by passive hemagglutination by using the red blood corpuscles of sheep treated with formalin and recovered from the antigen studied by the method described by A. A. Hirata and M. W. Brandiss (J. Immunol., 100, 641-648, 1968). The taking of the blood occurred 14, 28, 34 and 36 days after the first injection.
(§3) By way of comparison, the mice receive, instead of the Mur-NAc-L-Ser-D-iso-Gln, either lipopolysaccharides (LPS) (extract of S. Enteritidis by the water-phenol method), or the adjuvant denoted by the name "WSA" and described by Adam et al. [Infect. Immun. (1973) 7, 855-861]. The control mice only received the antigen.

anti-albumin antibodies [4] = assay: Adjuvant character in aqueous phase, first antigen dose 0.05 mg BSA, PA and ABC (Ser series); type: in vivo, Swiss mice; settings: 100 μg, first BSA dose 0.05 mg
Method: as §1, §2, §3
These tests were carried out again with limitation of the dose of antigen in the first injection to 0.05 mg, the other conditions being the same. This weaker dose of antigen gives by itself a positive response with the controls which have received the antigen without adjuvant. It thus allows to be shown a substance which inhibits the response of immunising the disorder. Moreover, an adjuvant substance, under these conditions, always increases the strength of antibody with respect to that of the controls.
In these tests, the determination of the strength of antibody has been effected simultaneously by passive hemagglutination (PA) and by the method of fixation of the antigen by the serum (ABC), such as described by P. Minden and S. Parr (Handbook of Exp. Immunol., P. 463, D. M. Weir ed. Blackwell Scient. Pub. Oxford and Edinburgh, 1967).

anti-albumin antibodies [5] = assay: Adjuvant character in aqueous solution: anti-albumin antibodies by passive hemagglutination (NHCH3 series); type: in vivo, Swiss mice
Method: Groups of 8 Swiss mice aged two months receive, by subcutaneous injection, 0.5 mg of antigen constituted by the albumin of bovine serum (BSA) and 0.1 mg of the substance tested in an isotonic saline solution. […] Thirty days later, the mice receive a further dose containing 0.1 mg of the same antigen.
The strength of antibody is determined by passive hemagglutination, by using the red blood corpuscles of sheep treated for formalin and recovered from the antigen studied by the method described by A. A. Hirata and M. W. Brandiss (J. Immunol., 100, 641-648, 1968). The taking of the blood took place 14, 28, 34 and 36 days after the first injection.

antibody to ovalbumin = assay: Adjuvant character in oily phase: proportion of antibody to ovalbumin (NHCH3 series); type: in vivo, Hartley guinea-pigs; settings: 500 μg ovalbumin, 100 μg in FIA emulsion, 21 days
Method: As for the preceding tests, one follows the increase of the proportion of antibody caused by the injection of antigen and of the compound of the invention, but, in the present case, the injection contains an oily phase constituted by Freund's incomplete adjuvant (in water-in-oil emulsion).
For these tests, Hartley guinea-pigs of 350 g were used. The control animals receive, in each of the hind feet 0.1 ml of emulsion, either of FIA, or of FCA (Freund's complete adjuvant) containing 500 μg of ovalbumin (antigen). The test product is administered at the rate of 100 μg, in an emulsion of FIA.
21 days after the injection, the proportion of antibody is determined by passive hemagglutatination (PHA), as previously, and by precipitation by the method of Folin.

K. pneumoniae = system: K. pneumoniae; design: species or system mice; settings: mouse, in vivo, iv
[6] = 100μg S.C. with BSA 0.5 mg in isotonic saline, maximum serum dilution agglutinating
[7] = 100μg S.C. with BSA 0.5 mg, further 0.1 mg BSA at 30 days
[8] = I.V. 100 μg, 24 hours before the infection
[9] = 100μg S.C. with BSA 0.5 mg in isotonic saline
[10] = I.V. 100 μg, 1 hour after the infection
[11] = iv, listed as Mur-NAc-L-Ala-D-Glu-(OCH3)2
[12] = per os 2000 μg, 24 hours before the infection

Structure (SMILES) | Proportion of antibody 28th day (anti-albumin antibody; 100μg S.C. with BSA 0.5 mg) | Proportion of antibody 14th day (anti-albumin antibody; [6]) | Proportion of antibody 34th day (anti-albumin antibody; [7]) | Proportion of antibody 36th day (anti-albumin antibody; [7]) | Serum antibody Precipitation ([1]; ovalbumin 0.5 mg) [µg/mL] | Serum antibody Agglutination ([1]; ovalbumin 0.5 mg) | Cutaneous test (diameter in mm) ([2]; ovalbumin 0.5 mg) [mm] | % of protection (Klebsiella pneumoniae; [8]) [%] | Number of animals surviving on day 3 (Klebsiella pneumoniae; iv) | Number of animals surviving on day 5 (Klebsiella pneumoniae; iv) | Number of animals surviving on day 8 (Klebsiella pneumoniae; iv) | % of protection (Klebsiella pneumoniae; [10]) [%] | Number of animals surviving on day 3 (Klebsiella pneumoniae) | Number of animals surviving on day 5 (Klebsiella pneumoniae) | Number of animals surviving on day 8 (Klebsiella pneumoniae) | % of protection (Klebsiella pneumoniae; [12]) [%] | % of protection (K. pneumoniae) [%] | Number of animals surviving on day 3 (K. pneumoniae) | Number of animals surviving on day 5 (K. pneumoniae) | Number of animals surviving on day 8 (K. pneumoniae) | other results
COC(=O)CC[C@@H](NC(=O)[C@H](C)NC(=O)[C@@H](C)OC1C(O)C(CO)OC(O)C1NC(C)=O)C(N)=O (stereo partly drawn) [Mur-NAc-L-Ala-D-iso-Gln(OCH3), 2-(2-acetamido-2-deoxy-3-O-D-glucopyranose)-D-propionyl-L-alanyl-D-isoglutamine methyl ester] | 12 | 12 | 100 | 800 | 2100 | 3000 | 12 | 29 | 21 | 3 | 11 |  |  |  |  |  |  |  |  |  | 
CC(=O)NC1C(O)OC(CO)C(O)C1OC(C)C(=O)NC(CO)C(=O)NC(CCC(=O)O)C(N)=O [Mur-NAc-L-Ser-D-iso-Gln, 2-(2-acetamido-2-deoxy-3-O-D-glucopyranosyl)-D-propionyl-L-seryl-D-isoglutamine] |  |  |  |  |  |  |  |  |  |  |  |  |  |  |  |  |  |  |  |  | LD50 (mice): > 1 g per kg; Strength of antibody 28th day (anti-albumin antibodies [3]; 100μg S.C. with BSA 0.5 mg): 25; strength of antibody 14th day (anti-albumin antibodies [3]; [9]): 12; Strength of antibody 36th day (anti-albumin antibodies [3]; [7]): 1600; strength of antibody 34th day (anti-albumin antibodies [3]; [7]): 1600; Strength of antibody 28th day ABC (anti-albumin antibodies [4]): < 20; Strength of antibody 28th day PA (anti-albumin antibodies [4]): 3; Strength of antibody 34th day ABC (anti-albumin antibodies [4]): < 20; Strength of antibody 34th day PA (anti-albumin antibodies [4]): 50; Strength of antibody 42nd day PA (anti-albumin antibodies [4]): 260; Strength of antibody 36 day ABC (anti-albumin antibodies [4]): 230; Strength of antibody 36 day PA (anti-albumin antibodies [4]): 800; Strength of antibody 14th day ABC (anti-albumin antibodies [4]; fixation of the antigen by the serum): < 20; Strength of antibody 14th day PA (anti-albumin antibodies [4]; passive hemagglutination): < 3
CNC(=O)C(CCC(=O)O)NC(=O)C(C)NC(=O)C(C)OC1C(O)C(CO)OC(O)C1NC(C)=O [Mur-NAc-L-Ala-D-Glu(NHCH3), 2-(2-acetamido-2-deoxy-3-O-D-glucopyranosyl)-D-propionyl-L-alanyl-D-(α-methylamide)-glutamic acid] |  |  |  |  |  |  |  |  |  |  |  |  |  |  |  |  |  |  |  |  | strength of antibody 14th day (anti-albumin antibodies [5]; [9]): 6; strength of antibody 34th day (anti-albumin antibodies [5]; [7]): 1600; strength of antibody day (fourth column, 36 days) (anti-albumin antibodies [5]; [7]): 1600; Proportion of antibody Agglutination (antibody to ovalbumin; PHA): 6100; Proportion of antibody Precipitation (antibody to ovalbumin; method of Folin): 5500
COC(=O)CC[C@@H](NC(=O)[C@H](C)NC(=O)[C@@H](C)OC1C(O)C(CO)OC(O)C1NC(C)=O)C(=O)OC (stereo partly drawn) [Mur-NAc-L-Ala-D-Glu(OCH3)2, 2-(2-acetamido-2-deoxy-3-O-D-glucopyranose)-D-propionyl-L-alanyl-D-glutamic dimethyl ester] | 50 | 50 | 400 | 800 | 950 | 2600 | 6.2 | 46 | 8 | 8 | 8 | 88 | 10 | 9 | 8 | 50 | 52.5 | 15 | 12 | 10 | Number of animals surviving on day 3 (Klebsiella pneumoniae; [11]): 21; Number of animals surviving on day 5 (Klebsiella pneumoniae; [11]): 19; Number of animals surviving on day 8 (Klebsiella pneumoniae; [11]): 15
COC(=O)[C@@H](CCC(=O)O)NC(=O)[C@H](C)NC(=O)[C@@H](C)OC1C(O)C(CO)OC(O)C1NC(C)=O (stereo partly drawn) [Mur-NAc-L-Ala-D-Glu-α-OCH3, 2-(2-acetamido-2-deoxy-3-O-D-glucopyranose)-D-propionyl-L-alanyl-D-glutamic α-methyl ester] | 12 | 12 | 200 | 400 |  |  |  | 67 | 24 and 16 | 24 and 16 | 23 and 14 | 88 | 11 | 9 | 6 | 40.5 | 65 | 16 | 16 | 12 | Proportion of antibody 14th day (anti-albumin antibody; 10μg S.C. with BSA 0.5 mg): 6; Proportion of antibody 28th day (anti-albumin antibody; 10μg S.C. with BSA 0.5 mg): 6; Proportion of antibody 34th day (anti-albumin antibody; 10μg S.C. with BSA 0.5 mg): 200; Proportion of antibody 36th day (anti-albumin antibody; 10μg S.C. with BSA 0.5 mg): 400; Proportion of antibody 14th day (anti-albumin antibody; 2000μg P.O. with BSA 0.5 mg): 6; Proportion of antibody 28th day (anti-albumin antibody; 2000μg P.O. with BSA 0.5 mg): 6; Proportion of antibody 34th day (anti-albumin antibody; 2000μg P.O. with BSA 0.5 mg): 50; Proportion of antibody 36th day (anti-albumin antibody; 2000μg P.O. with BSA 0.5 mg): 200; Serum antibody Precipitation ([1]; ovalbumin 1 mg, nitrogen precipitable per ml serum): 2600 µg/mL; Cutaneous test (diameter in mm) ([2]; ovalbumin 1 mg): 6 ± 3 mm
